Results: ChEMBL document CHEMBL2331143, “Antiparkinsonian activity of some 9-N-, O-, S- and C-derivatives of 3-methyl-6-(prop-1-en-2-yl)cyclohex-3-ene-1,2-diol” (2013)

Key:
Assay type in all cases: functional
Mus musculus [1] = experiment: Antiparkinsonian activity in MPTP C57Bl/6 mouse model assessed as immobility time at 20 mg/kg, po administered 24 hrs loast last dose of MPTP measured after 2 hrs post compound dose by open field test relative to saline-treated control
Mus musculus [2] = experiment: Antiparkinsonian activity in MPTP C57Bl/6 mouse model assessed as movement speed at 20 mg/kg, po administered 24 hrs loast last dose of MPTP measured after 2 hrs post compound dose by open field test relative to saline-treated control
Mus musculus [3] = experiment: Antiparkinsonian activity in MPTP C57Bl/6 mouse model assessed as movement distance at 20 mg/kg, po administered 24 hrs loast last dose of MPTP measured after 2 hrs post compound dose by open field test relative to saline-treated control
Mus musculus [4] = experiment: Antiparkinsonian activity in MPTP C57Bl/6 mouse model assessed as time of locomotor activity at 20 mg/kg, po administered 24 hrs loast last dose of MPTP measured after 2 hrs post compound dose by open field test relative to saline-treated control

Row | Compound | Time (Mus musculus [1]) | Activity (Mus musculus [2]) | Activity (Mus musculus [3]) | Time (Mus musculus [4])
1 | C=C(C)[C@@H]1CC=C(C)[C@@H](O)[C@@H]1O | 50.8 s | 2.6 cm/s | 302 cm | 69.2 s
2 | C=C(CSCCC)[C@@H]1CC=C(C)[C@@H](O)[C@@H]1O | 58.6 s | 2.6 cm/s | 317.6 cm | 61.4 s
3 | C=C1CO[C@H]2[C@H](O)C(C)=CC[C@@H]12 | 73.4 s | 1.7 cm/s | 214 cm | 46.6 s
4 | C=C(CCCCC)[C@@H]1CC=C(C)[C@@H](O)[C@@H]1O | 56.8 s | 2.7 cm/s | 335.2 cm | 63.2 s
5 | C=C(CNC1C2CC3CC(C2)CC1C3)[C@@H]1CC=C(C)[C@@H](O)[C@@H]1O (stereo not given in full) | 85.2 s | 1.2 cm/s | 149.7 cm | 34.8 s
6 | C=C(CNCCN(C)C)[C@@H]1CC=C(C)[C@@H](O)[C@@H]1O | 68.8 s | 1.8 cm/s | 225 cm | 51.2 s
7 | C=C(CN1C(=O)c2ccccc2C1=O)[C@@H]1CC=C(C)[C@@H](O)[C@@H]1O | 61.7 s | 2.3 cm/s | 280 cm | 58.3 s
8 | C=C(CN1CCOCC1)[C@@H]1CC=C(C)[C@@H](O)[C@@H]1O | 71.5 s | 1.7 cm/s | 215.3 cm | 48.5 s
9 | C=C(CO)[C@@H]1CC=C(C)[C@@H](O)[C@@H]1O | 80 s | 1.5 cm/s | 182.1 cm | 37.2 s
10 | C=C(CN)[C@@H]1CC=C(C)[C@@H](O)[C@@H]1O | 66.5 s | 2 cm/s | 248.6 cm | 53.5 s
